Measured values published in patent US20260234115A1, “LIPID COMPOUNDS, COMPOSITIONS, AND USES THEREOF” (Liberate Bio, Inc., priority 2023, published 2026).
Marks after values point to notes of the source that are not given here.

Test system: mouse organs
Experiment: In vivo activity screening in mice: organ mean total flux (p/s) of luciferase activity after injection of F2 LNP pools (Table 6, FIG. 7A-7C)
Conditions: luciferase mRNA
In short: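 Luciferase output per organ is reported as mean total flux (p/s) from IVIS regions of interest. Organs were collected from perfused C57BL/6J mice and imaged 10-15 min after s.c. D-luciferin, 4-6 h after i.v. dosing. Dosing was 0.25-3 mg/kg luciferase mRNA in F2 LNP pools.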

For `CCCCC/C=C\CCOC(=O)CCCCCC(=O)OCC(COC(=O)CCCCC)(COC(=O)CCCCCC(=O)OCC/C=C\CCCCC)COC(=O)CCC(CCCCCC)OC(=O)NCCN1CCCC1` (stereo not shown) [Compound 60], the “Organ Mean Total Flux Femur” value (Mouse 2, dose 1.0 mg/kg) was 56.4 p/s (×10^6), the “Organ Mean Total Flux Heart” value (Mouse 2, dose 1.0 mg/kg) was 2.9 p/s (×10^6) and the “Organ Mean Total Flux Kidney” value (Mouse 2, dose 1.0 mg/kg) was 5.5 p/s (×10^6). For the same molecule, the “Organ Mean Total Flux Liver” value (Mouse 2, dose 1.0 mg/kg) was 1118 p/s (×10^6), the “Organ Mean Total Flux Lung” value (Mouse 2, dose 1.0 mg/kg) was 72.8 p/s (×10^6) and the “Organ Mean Total Flux Muscle” value (Mouse 2, dose 1.0 mg/kg) was 28.7 p/s (×10^6). The “Organ Mean Total Flux Pancreas” value (Mouse 2, dose 1.0 mg/kg) was 86.2 p/s (×10^6), the “Organ Mean Total Flux Spleen” value (Mouse 2, dose 1.0 mg/kg) was 367.7 p/s (×10^6) and the “Organ Mean Total Flux Femur” value (Mouse 14, dose 0.5 mg/kg) was 11.4 p/s (×10^6). For the same molecule, the “Organ Mean Total Flux Heart” value (Mouse 14, dose 0.5 mg/kg) was 2.5 p/s (×10^6), the “Organ Mean Total Flux Kidney” value (Mouse 14, dose 0.5 mg/kg) was 4.1 p/s (×10^6) and the “Organ Mean Total Flux Liver” value (Mouse 14, dose 0.5 mg/kg) was 448.0 p/s (×10^6). The “Organ Mean Total Flux Lung” value (Mouse 14, dose 0.5 mg/kg) was 20.5 p/s (×10^6), the “Organ Mean Total Flux Muscle” value (Mouse 14, dose 0.5 mg/kg) was 14.9 p/s (×10^6) and the “Organ Mean Total Flux Pancreas” value (Mouse 14, dose 0.5 mg/kg) was 18.0 p/s (×10^6). For the same molecule, the “Organ Mean Total Flux Spleen” value (Mouse 14, dose 0.5 mg/kg) was 42.7 p/s (×10^6).

For `CCCCC/C=C\CCOC(=O)CCCCC(=O)OCC(COC(=O)CCCCC(=O)OCC/C=C\CCCCC)(COC(=O)CCC(CCCC)CCOC(=O)NCCN1CCCC1)COC(=O)CC12CC3CC(CC(C3)C1)C2` (stereo not shown) [Compound 61, O6-[2-[[2-(1-adamantyl)acetyl]oxymethyl]-2-[[6-[(Z)-non-3-enoxy]-6-oxo-hexanoyl]-oxymethyl]-3-[4-[2-(2-pyrrolidin-1-ylethylcarbamoyloxy)ethyl]octanoyloxy]propyl]O1-[(Z)-non-3-enyl]hexanedioate], the “Organ Mean Total Flux Femur” value (Mouse 2, dose 1.0 mg/kg) was 34.2 p/s (×10^6), the “Organ Mean Total Flux Heart” value (Mouse 2, dose 1.0 mg/kg) was 1.9 p/s (×10^6) and the “Organ Mean Total Flux Kidney” value (Mouse 2, dose 1.0 mg/kg) was 4.8 p/s (×10^6). The “Organ Mean Total Flux Liver” value (Mouse 2, dose 1.0 mg/kg) was 542.7 p/s (×10^6), the “Organ Mean Total Flux Lung” value (Mouse 2, dose 1.0 mg/kg) was 123.9 p/s (×10^6) and the “Organ Mean Total Flux Muscle” value (Mouse 2, dose 1.0 mg/kg) was 28.1 p/s (×10^6). For the same molecule, the “Organ Mean Total Flux Pancreas” value (Mouse 2, dose 1.0 mg/kg) was 28.8 p/s (×10^6), the “Organ Mean Total Flux Spleen” value (Mouse 2, dose 1.0 mg/kg) was 85.1 p/s (×10^6) and the “Organ Mean Total Flux Femur” value (Mouse 14, dose 0.5 mg/kg) was 16.6 p/s (×10^6). For the same molecule, the “Organ Mean Total Flux Heart” value (Mouse 14, dose 0.5 mg/kg) was 1.0 p/s (×10^6), the “Organ Mean Total Flux Kidney” value (Mouse 14, dose 0.5 mg/kg) was 5.0 p/s (×10^6) and the “Organ Mean Total Flux Liver” value (Mouse 14, dose 0.5 mg/kg) was 157.3 p/s (×10^6). The “Organ Mean Total Flux Lung” value (Mouse 14, dose 0.5 mg/kg) was 33.8 p/s (×10^6), the “Organ Mean Total Flux Muscle” value (Mouse 14, dose 0.5 mg/kg) was 11.1 p/s (×10^6) and the “Organ Mean Total Flux Pancreas” value (Mouse 14, dose 0.5 mg/kg) was 51.6 p/s (×10^6). For the same molecule, the “Organ Mean Total Flux Spleen” value (Mouse 14, dose 0.5 mg/kg) was 109.9 p/s (×10^6).

In the case of `CCCCC/C=C\CCOC(=O)CCCCC(=O)OCC(COC(=O)CCCCC(=O)OCC/C=C\CCCCC)(COC(=O)CCC(CCCCCCCC)OC(=O)NCCN1CCCC1)COC(=O)CC12CC3CC(CC(C3)C1)C2` (stereo not shown) [Compound 66, O6-[2-[[2-(1-adamantyl)acetyl]oxymethyl]-2-[[6-[(Z)-non-3-enoxy]-6-oxohexanoyl]oxymethyl]-3-[4-(2-pyrrolidin-1-ylethylcarbamoyloxy)dodecanoyloxy]propyl]O1-[(Z)-non-3-enyl]hexanedioate], the “Organ Mean Total Flux Femur” value (Mouse 9, dose 0.5 mg/kg) is reported as 5.5 p/s (×10^6), the “Organ Mean Total Flux Heart” value (Mouse 9, dose 0.5 mg/kg) is reported as 1.3 p/s (×10^6) and the “Organ Mean Total Flux Kidney” value (Mouse 9, dose 0.5 mg/kg) is reported as 1.8 p/s (×10^6). For the same molecule, the “Organ Mean Total Flux Liver” value (Mouse 9, dose 0.5 mg/kg) was 68.9 p/s (×10^6), the “Organ Mean Total Flux Lung” value (Mouse 9, dose 0.5 mg/kg) was 14.1 p/s (×10^6) and the “Organ Mean Total Flux Muscle” value (Mouse 9, dose 0.5 mg/kg) was 11.3 p/s (×10^6). For the same molecule, the “Organ Mean Total Flux Pancreas” value (Mouse 9, dose 0.5 mg/kg) was 4.0 p/s (×10^6) and the “Organ Mean Total Flux Spleen” value (Mouse 9, dose 0.5 mg/kg) was 7.8 p/s (×10^6).

In the case of `CCCCC/C=C\CCOC(=O)CCCCC(=O)OCC(COC(=O)CCCCC(=O)OCC/C=C\CCCCC)(COC(=O)CCC(CCCCCC)OC(=O)NCCN1CCCC1)COC(=O)C12CCC(CC1)CC2` (stereo not shown) [Compound 67, O6-[2-(bicyclo[2.2.2]octane-1-carbonyloxymethyl)-2-[[6-[(Z)-non-3-enoxy]-6-oxo-hexanoyl]-oxymethyl]-3-[4-(2-pyrrolidin-1-ylethylcarbamoyloxy)decanoyloxy]propyl]O1-[(Z)-non-3-enyl]hexanedioate], the “Organ Mean Total Flux Femur” value (Mouse 12, dose 0.5 mg/kg) is reported as 10.8 p/s (×10^6), the “Organ Mean Total Flux Heart” value (Mouse 12, dose 0.5 mg/kg) is reported as 0.4 p/s (×10^6) and the “Organ Mean Total Flux Kidney” value (Mouse 12, dose 0.5 mg/kg) is reported as 1.9 p/s (×10^6). For the same molecule, the “Organ Mean Total Flux Liver” value (Mouse 12, dose 0.5 mg/kg) was 220.0 p/s (×10^6), the “Organ Mean Total Flux Lung” value (Mouse 12, dose 0.5 mg/kg) was 11.8 p/s (×10^6) and the “Organ Mean Total Flux Muscle” value (Mouse 12, dose 0.5 mg/kg) was 22.8 p/s (×10^6). The “Organ Mean Total Flux Pancreas” value (Mouse 12, dose 0.5 mg/kg) was 10.4 p/s (×10^6) and the “Organ Mean Total Flux Spleen” value (Mouse 12, dose 0.5 mg/kg) was 50.1 p/s (×10^6).

For `CCCCC/C=C\CCOC(=O)CCCCC(=O)OCC(COC(=O)CCCCC(=O)OCC/C=C\CCCCC)(COC(=O)CCC(CCCCCC)OC(=O)NCCN1CCCC1)COC(=O)CC1CCC1` (stereo not shown) [Compound 73, O6-[2-[(2-cyclobutylacetyl)oxymethyl]-2-[[6-[(Z)-non-3-enoxy]-6-oxo-hexanoyl]oxymethyl]-3-[4-(2-pyrrolidin-1-ylethylcarbamoyloxy)decanoyloxy]propyl]O1-[(Z)-non-3-enyl]hexanedioate], the “Organ Mean Total Flux Femur” value (Mouse 12, dose 0.5 mg/kg) was 7.3 p/s (×10^6), the “Organ Mean Total Flux Heart” value (Mouse 12, dose 0.5 mg/kg) was 0.5 p/s (×10^6) and the “Organ Mean Total Flux Kidney” value (Mouse 12, dose 0.5 mg/kg) was 1.7 p/s (×10^6). For the same molecule, the “Organ Mean Total Flux Liver” value (Mouse 12, dose 0.5 mg/kg) was 127.7 p/s (×10^6), the “Organ Mean Total Flux Lung” value (Mouse 12, dose 0.5 mg/kg) was 10.6 p/s (×10^6) and the “Organ Mean Total Flux Muscle” value (Mouse 12, dose 0.5 mg/kg) was 6.8 p/s (×10^6). The “Organ Mean Total Flux Pancreas” value (Mouse 12, dose 0.5 mg/kg) was 15.7 p/s (×10^6) and the “Organ Mean Total Flux Spleen” value (Mouse 12, dose 0.5 mg/kg) was 49.2 p/s (×10^6).

In the case of `CCCCC/C=C\CCOC(=O)CCCCC(=O)OCC(COC(=O)CCCCC(=O)OCC/C=C\CCCCC)(COC(=O)CCC(CCCCCC)OC(=O)NCCN1CCCC1)COC(=O)C1CC2C(C1)C2(F)F` (stereo not shown) [Compound 81, O6-[2-[(6,6-difluorobicyclo[3.1.0]hexane-3-carbonyl)oxymethyl]-2-[[6-[(Z)-non-3-enoxy]-6-oxo-hexanoyl]oxymethyl]-3-[4-(2-pyrrolidin-1-ylethylcarbamoyloxy)decanoyloxy]propyl]O1-[(Z)-non-3-enyl]hexanedioate], the “Organ Mean Total Flux Femur” value (Mouse 12, dose 0.5 mg/kg) is reported as 11.1 p/s (×10^6), the “Organ Mean Total Flux Heart” value (Mouse 12, dose 0.5 mg/kg) is reported as 1.2 p/s (×10^6) and the “Organ Mean Total Flux Kidney” value (Mouse 12, dose 0.5 mg/kg) is reported as 4.0 p/s (×10^6). For the same molecule, the “Organ Mean Total Flux Liver” value (Mouse 12, dose 0.5 mg/kg) was 727.0 p/s (×10^6), the “Organ Mean Total Flux Lung” value (Mouse 12, dose 0.5 mg/kg) was 12.1 p/s (×10^6) and the “Organ Mean Total Flux Muscle” value (Mouse 12, dose 0.5 mg/kg) was 5.7 p/s (×10^6). The “Organ Mean Total Flux Pancreas” value (Mouse 12, dose 0.5 mg/kg) was 12.9 p/s (×10^6) and the “Organ Mean Total Flux Spleen” value (Mouse 12, dose 0.5 mg/kg) was 115.9 p/s (×10^6).

For `CCCCC/C=C\CCOC(=O)CCCCC(=O)OCC(COC(=O)CCCCC(=O)OCC/C=C\CCCCC)(COC(=O)CCC(CCCCCC)OC(=O)NCCN1CCCC1)COC(=O)CC12CC(C1)C2` (stereo not shown) [Compound 91, O6-[2-[[2-(1-bicyclo[1.1.1]pentanyl)acetyl]oxymethyl]-2-[[6-[(Z)-non-3-enoxy]-6-oxo-hexanoyl]oxymethyl]-3-[4-(2-pyrrolidin-1ylethylcarbamoyloxy)decanoyloxy]propyl]O1-[(Z)-non-3-enyl]hexanedioate], the “Organ Mean Total Flux Femur” value (Mouse 12, dose 0.5 mg/kg) was 15.8 p/s (×10^6), the “Organ Mean Total Flux Heart” value (Mouse 12, dose 0.5 mg/kg) was 2.6 p/s (×10^6) and the “Organ Mean Total Flux Kidney” value (Mouse 12, dose 0.5 mg/kg) was 12.3 p/s (×10^6). The “Organ Mean Total Flux Liver” value (Mouse 12, dose 0.5 mg/kg) was 404.7 p/s (×10^6), the “Organ Mean Total Flux Lung” value (Mouse 12, dose 0.5 mg/kg) was 26.3 p/s (×10^6) and the “Organ Mean Total Flux Muscle” value (Mouse 12, dose 0.5 mg/kg) was 7.8 p/s (×10^6). For the same molecule, the “Organ Mean Total Flux Pancreas” value (Mouse 12, dose 0.5 mg/kg) was 76.4 p/s (×10^6) and the “Organ Mean Total Flux Spleen” value (Mouse 12, dose 0.5 mg/kg) was 123.6 p/s (×10^6).

For `CCCCC/C=C\CCOC(=O)CCCCC(=O)OCC(COC(=O)CCCCC(=O)OCC/C=C\CCCCC)(COC(=O)CCC(CCCCCC)OC(=O)NCCN1CCCC1)COC(=O)C12CCC(F)(CC1)CC2` (stereo not shown) [Compound 93, O6-[2-[(4-fluorobicyclo[2.2.2]octane-1-carbonyl)oxymethyl]-2-[[6-[(Z)-non-3-enoxy]-6-oxo-hexanoyl]oxymethyl]-3-[4-(2-pyrrolidin-1-ylethylcarbamoyloxy)decanoyloxy]propyl]O1-[(Z)-non-3-enyl]hexanedioate], the “Organ Mean Total Flux Femur” value (Mouse 12, dose 0.5 mg/kg) was 27.8 p/s (×10^6), the “Organ Mean Total Flux Heart” value (Mouse 12, dose 0.5 mg/kg) was 1.3 p/s (×10^6) and the “Organ Mean Total Flux Kidney” value (Mouse 12, dose 0.5 mg/kg) was 3.5 p/s (×10^6). For the same molecule, the “Organ Mean Total Flux Liver” value (Mouse 12, dose 0.5 mg/kg) was 528.7 p/s (×10^6), the “Organ Mean Total Flux Lung” value (Mouse 12, dose 0.5 mg/kg) was 34.3 p/s (×10^6) and the “Organ Mean Total Flux Muscle” value (Mouse 12, dose 0.5 mg/kg) was 11.0 p/s (×10^6). For the same molecule, the “Organ Mean Total Flux Pancreas” value (Mouse 12, dose 0.5 mg/kg) was 25.8 p/s (×10^6) and the “Organ Mean Total Flux Spleen” value (Mouse 12, dose 0.5 mg/kg) was 136.6 p/s (×10^6).

`CCCCC/C=C\CCOC(=O)CCCCC(=O)OCC(COC(=O)CCCCC(=O)OCC/C=C\CCCCC)(COC(=O)CCC(CCCCCC)OC(=O)NCCN1CCCC1)COC(=O)C1(C2CCCCC2)CCCCC1` (stereo not shown) [Compound 96, O6-[2-[(1-cyclohexylcyclohexanecarbonyl)oxymethyl]-2-[[6-[(Z)-non-3-enoxy]-6-oxo-hexanoyl]oxymethyl]-3-[4-(2-pyrrolidin-1-ylethylcarbamoyl-oxy)decanoyloxy]propyl]O1-[(Z)-non-3-enyl]hexanedioate] was tested, and the “Organ Mean Total Flux Femur” value (Mouse 12, dose 0.5 mg/kg) was 3.4 p/s (×10^6), the “Organ Mean Total Flux Heart” value (Mouse 12, dose 0.5 mg/kg) was 0.4 p/s (×10^6) and the “Organ Mean Total Flux Kidney” value (Mouse 12, dose 0.5 mg/kg) was 0.9 p/s (×10^6). For the same molecule, the “Organ Mean Total Flux Liver” value (Mouse 12, dose 0.5 mg/kg) was 213.0 p/s (×10^6), the “Organ Mean Total Flux Lung” value (Mouse 12, dose 0.5 mg/kg) was 9.0 p/s (×10^6) and the “Organ Mean Total Flux Muscle” value (Mouse 12, dose 0.5 mg/kg) was 11.9 p/s (×10^6). The “Organ Mean Total Flux Pancreas” value (Mouse 12, dose 0.5 mg/kg) was 0.9 p/s (×10^6) and the “Organ Mean Total Flux Spleen” value (Mouse 12, dose 0.5 mg/kg) was 6.6 p/s (×10^6).
